Measurements taken from patent US6518243B1, “Desleucyl glycopeptide antibiotics and methods of making same” (Trustees of Princeton University, priority 1999, dated 2003).

How the values were obtained:
E. faecalis (CL 4877) = experiment: Zone of inhibition screen, 96 well agar array format; assay type: cell-based; set-up: scale not given here
Summary of the method: (§1)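 Agar-array screen, 96-well; single compounds vs. strain panel (panel also incl. E. faecium ATCC 49624); antibacterial activity scored.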

S. aureus (ATCC 29213) = experiment: as above; assay type: cell-based; set-up: scale not given here
Summary of the method: as §1

[1] = zone of inhibition relative to 1 mg/ml p-chlorobiphenylvancomycin
[2] = zone of inhibition relative to 1 mg/ml stock solution of p-chlorobiphenylvancomycin

SMILES | zone score, E. faecalis CL 4877 (E. faecalis (CL 4877); [1]) | zone score, S. aureus ATCC 29213 (S. aureus (ATCC 29213); [1]) | zone score, E. faecalis CL 4877 (E. faecalis (CL 4877); [2]) | zone score, S. aureus ATCC 29213 (S. aureus (ATCC 29213); [2])
CC1OC(OC2C(Oc3c4cc5cc3Oc3ccc(cc3Cl)C(O)C3NC(=O)C(NC(=O)C5NC(=O)C(CC(N)=O)NC(=O)C(NC(=O)CON)C(O)c5ccc(c(Cl)c5)O4)c4ccc(O)c(c4)-c4c(O)cc(O)cc4C(C(=O)O)NC3=O)OC(CO)C(O)C2O)CC(C)(NCc2ccc(-c3ccc(Cl)cc3)cc2)C1O (stereo not drawn) [Compound 222] | 2 | 2 | – | –
CC1OC(OC2C(Oc3c4cc5cc3Oc3ccc(cc3Cl)C(O)C3NC(=O)C(NC(=O)C5NC(=O)C(CC(N)=O)NC(=O)C(NC(=O)C=CC(=O)NC(N)=O)C(O)c5ccc(c(Cl)c5)O4)c4ccc(O)c(c4)-c4c(O)cc(O)cc4C(C(=O)O)NC3=O)OC(CO)C(O)C2O)CC(C)(NCc2ccc(-c3ccc(Cl)cc3)cc2)C1O (stereo not drawn) [Compound 189] | – | – | 2 | 2
CC(NCCCCC(N)C(=O)NC1C(=O)NC(CC(N)=O)C(=O)NC2C(=O)NC3C(=O)NC(C(=O)NC(C(=O)O)c4cc(O)cc(O)c4-c4cc3ccc4O)C(O)c3ccc(c(Cl)c3)Oc3cc2cc(c3OC2OC(CO)C(O)C(O)C2OC2CC(C)(NCc3ccc(-c4ccc(Cl)cc4)cc3)C(O)C(C)O2)Oc2ccc(cc2Cl)C1O)=C1C(=O)CC(C)(C)CC1=O (stereo not drawn) [Compound 39] | – | – | 2 | 2
Cc1cnc(C(=O)NC2C(=O)NC(CC(N)=O)C(=O)NC3C(=O)NC4C(=O)NC(C(=O)NC(C(=O)O)c5cc(O)cc(O)c5-c5cc4ccc5O)C(O)c4ccc(c(Cl)c4)Oc4cc3cc(c4OC3OC(CO)C(O)C(O)C3OC3CC(C)(NCc4ccc(-c5ccc(Cl)cc5)cc4)C(O)C(C)O3)Oc3ccc(cc3Cl)C2O)cn1 (stereo not drawn) [Compound 243] | 2 | 2 | – | –
COc1ccc(C(=O)NC2C(=O)NC(CC(N)=O)C(=O)NC3C(=O)NC4C(=O)NC(C(=O)NC(C(=O)O)c5cc(O)cc(O)c5-c5cc4ccc5O)C(O)c4ccc(c(Cl)c4)Oc4cc3cc(c4OC3OC(CO)C(O)C(O)C3OC3CC(C)(NCc4ccc(-c5ccc(Cl)cc5)cc4)C(O)C(C)O3)Oc3ccc(cc3Cl)C2O)c(OC)c1 (stereo not drawn) [Compound 236] | 2 | 2 | – | –
CC1OC(OC2C(Oc3c4cc5cc3Oc3ccc(cc3Cl)C(O)C3NC(=O)C(NC(=O)C5NC(=O)C(CC(N)=O)NC(=O)C(NC(=O)C(N)=O)C(O)c5ccc(c(Cl)c5)O4)c4ccc(O)c(c4)-c4c(O)cc(O)cc4C(C(=O)O)NC3=O)OC(CO)C(O)C2O)CC(C)(NCc2ccc(-c3ccc(Cl)cc3)cc2)C1O (stereo not drawn) [Compound 200] | – | – | 2 | 2
CC1OC(OC2C(Oc3c4cc5cc3Oc3ccc(cc3Cl)C(O)C3NC(=O)C(NC(=O)C5NC(=O)C(CC(N)=O)NC(=O)C(NC(=O)c5c[nH]c(=O)[nH]c5=O)C(O)c5ccc(c(Cl)c5)O4)c4ccc(O)c(c4)-c4c(O)cc(O)cc4C(C(=O)O)NC3=O)OC(CO)C(O)C2O)CC(C)(NCc2ccc(-c3ccc(Cl)cc3)cc2)C1O (stereo not drawn) [Compound 208] | 2 | 2 | – | –
CC1OC(OC2C(Oc3c4cc5cc3Oc3ccc(cc3Cl)C(O)C3NC(=O)C(NC(=O)C5NC(=O)C(CC(N)=O)NC(=O)C(NC(=O)C(N)CC(=O)OC(C)(C)C)C(O)c5ccc(c(Cl)c5)O4)c4ccc(O)c(c4)-c4c(O)cc(O)cc4C(C(=O)O)NC3=O)OC(CO)C(O)C2O)CC(C)(NCc2ccc(-c3ccc(Cl)cc3)cc2)C1O (stereo not drawn) [Compound 3] | – | – | 2 | 2
CC(=O)CCCCC(=O)NC1C(=O)NC(CC(N)=O)C(=O)NC2C(=O)NC3C(=O)NC(C(=O)NC(C(=O)O)c4cc(O)cc(O)c4-c4cc3ccc4O)C(O)c3ccc(c(Cl)c3)Oc3cc2cc(c3OC2OC(CO)C(O)C(O)C2OC2CC(C)(NCc3ccc(-c4ccc(Cl)cc4)cc3)C(O)C(C)O2)Oc2ccc(cc2Cl)C1O (stereo not drawn) [Compound 278] | 2 | 2 | – | –
